IC50 data for four compounds are collected here from paper PMC8229775, “β-Thujaplicin Enhances TRAIL-Induced Apoptosis via the Dual Effects of XIAP Inhibition and Degradation in NCI-H460 Human Lung Cancer Cells” (Medicines, 2021).

The target in this test is T1, X-linked inhibitor of apoptosis protein (XIAP) (Homo sapiens, UniProt P98170).
T1 construct: GST-tagged XIAP-BIR3 domain
T1 sequence (P98170 241-356 limits assumed): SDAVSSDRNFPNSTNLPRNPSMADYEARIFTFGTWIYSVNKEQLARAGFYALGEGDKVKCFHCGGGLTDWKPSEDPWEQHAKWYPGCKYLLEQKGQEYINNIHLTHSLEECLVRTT
The test is described as follows: fluorescence polarization displacement of 5-FAM Smac/Diablo peptide from recombinant BIR3. The format is binding. Background: Polarisation of emitted light reports the rotation of a fluorescent probe.
As usually defined, the IC50 is the concentration needed to halve the response being measured. As to `O=c1cccccc1O` [Tropolone], the IC50 was found to be 83.1 ± 6.9 µM.
Consider `CC(C)c1ccc(O)c(=O)cc1` [γ-thujaplicin], for which the concentration for half-maximal inhibition (IC50) was determined as 56.2 ± 2.9 µM.
To `CCCCCCCCCCCC1=C(O)C(=O)C=C(O)C1=O` [Embelin] belongs 3.1 ± 0.6 µM; to `CC(C)c1cccc(=O)c(O)c1` [β-thujaplicin], 58.5 ± 2.8 µM.
